Experimental data reported in patent publication EP0423707A2, “Platinum complexes” (Bristol-Myers Squibb Company, priority 1989, dated 1991).

How the values were obtained:
[1] = tested on: B16-F10 murine melanoma cells; assay: In vitro cytotoxicity, crystal violet staining after 72 hours incubation; format: cell-based
Experimental: (§1) The cytotoxic activity of the platinum complexes were evaluated in vitro using B16-F10 murine melanoma cells and HCT-116 human colon carcinoma cells. The B16-F10 cell line was maintained cultured in Eagle's Minimum Essential Medium (MEM) with Earle's salts (Gibco; Grand Island, NY) enriched with 2 millimoles of L-glutamine, 2.06 millimoles of sodium pyruvate, insulin (0.26 units/ml), penicillin/streptomycin (10 units/milliliter and 10 micrograms/milliliter, respectively), MEM non-essential amino acids (0.6% Gibco; Grand Island, NY), and 10% fetal bovine serum (Hyclone; Logan, UT). The HCT-116 cells were grown in McCoy's 5A medium (modified, Gibco; Grand Island, NY) supplemented with 2 millimoles of L-glutamine, 0.12 millimoles of L-serine, 0.17 millimoles of asparagine, 1.5 millimoles of sodium pyruvate, MEM essential amino acids (0.67%, Gibco; Grand Island, NY), MEM vitamins (0.6%, Gibco; Grand Island, NY), fetal calf serum (10%, Hyclone; Logan, UT), and penicillin/streptomycin (10 units/milliliter and 10 micrograms/milliter, respectively). Both cell lines were incubated at 37°C in 5% CO₂/balance air high-humidity incubator.
(§2) Logarithmically growing cells were then harvested by mild trypsinization, and 4000 cells were added to each well of a 96-well microtiter plate (Costar; Cambridge, MA). The plates were incubated at 37°C in 5% CO₂ overnight to permit cell attachment to the plate. The cells were then treated with a platinum complex according to the present invention, cisplatin, or iproplatin and then incubated for 72 hours. After incubating, the plates were inverted and shaken to remove media, drug, and detached cells. Formalin (10%) in phosphate buffered saline was added and the cells fixed for 10 minutes. The fixative was then removed, the plates air dried, stained with 0.0075% crystal violet for 15 minutes, washed twice, and air dried. The stain is solubilized with 0.2 milliliters of 0.2 Molar AcOH/EtOH (1:1) and optical densities determined using a Dynatech MR600 microtiter plate reader (Dynatech; Chantilly, VA). IC50 values are calculated by linear regression analysis of absorption data.
(§3) For the above described in vitro cytotoxicity studies, the compounds are dissolved or suspended, depending on their solubility, in 0.9% Sodium Chloride or 10% ethanol in 0.9% Sodium Chloride. The compounds are prepared for in vivo treatment by dissolving or suspending in water (minimal amounts of Tween 80), 0.9% Sodium Chloride, or 10% ethanol in 0.9% Sodium Chloride. Olive oil or cotton seed oil are used for in vivo studies when the compounds are oil soluble compounds (see, for example, in Table 8, an oil soluble compound in olive oil, Example 9 (2-ethylhexanoate derivative), below).

[2] = tested on: HCT-116 human colon carcinoma cells; assay: as above; format: cell-based; conditions: HCT-116 cells
Experimental: as §1, §2, §3

[3] = tested on: M5076 sarcoma; assay: Activity against M5076 sarcoma, subcutaneous implant; format: in vivo, BDF1 mice; conditions: Days 5, 9, 13, and 17, at the dose producing the maximum effect; for MAXIMUM % T/C: median survival time vs controls; for MAXIMUM T-C: median time for tumors to reach 1 gram relative to controls
Experimental: Platinum complexes according to the present invention were additionally evaluated for further antitumor activity against M5076 sarcoma. BDF1 mice, 8 per group, were inoculated subcutaneously with a fragment of M5076 sarcoma.
Intraperitoneal or intravenous treatment with the complexes was initiated 5 days after implant and was continued on days 9, 13, and 17 for a total of 4 treatments. From 4 to 6 doses were tested for each compound under study.
A saline treated control group and cisplatin treated groups were included in each experiment. The mice were observed daily for survivors, and the experiments terminated after 75-80 days.
Antitumor activity was determined based on a) median survival time of the drug treated mice relative to that of the controls (percent T/C) and b) the median time for tumors to reach 1 gram in drug treated mice relative to the controls (T-C). A complex was considered active if it produced a T-C greater than or equal to 13 days.
as §3

[4] = tested on: L1210 murine leukemia; assay: Activity against L1210 murine leukemia, intracerebral implanted tumor; format: in vivo, CDF1 mice; conditions: single intraperitoneal dose on Day 3, at the dose producing the maximum effect, median survival time vs saline controls
Experimental: (§4) The platinum complexes according to the present invention were tested for antitumor activity against L1210 murine leukemia. CDF1 mice weighing 20 grams were inoculated intraperitoneally or intracerebrally with 10⁶ or 10⁵ ascites cells of L1210 leukemia, respectively.
(§5) Drug administration was initiated the day following intra-peritoneal tumor implantation or 3 days following intracerebral implant. The complexes were administered at various dose levels by intraperitoneal injection. Groups of 4 to 6 mice were used for each dose level, and they were treated with a single dose of the complex on the treatment day. A group of 10 saline treated control mice were included in each experiment. Cisplatin and iproplatin treated groups were included as positive controls in each experiment.
(§6) The mice were weighed before treatment and again on day 5 or 6, and the average weight change was used as a measure of toxicity. The animals were observed daily for mortality, and the experiments terminated after 30 days. Antitumor activity was determined based on percent T/C, which is the ratio of the median survival time of the drug treated group to the median survival time of the saline treated control group times 100.
(§7) A complex was considered active if it produced a T/C greater than or equal to 125 percent. […]

[5] = tested on: L1210 murine leukemia; assay: Activity against L1210 murine leukemia, intraperitoneal implanted tumor; format: in vivo, CDF1 mice; conditions: single intraperitoneal dose on Day 1, at the dose producing the maximum effect, median survival time vs saline controls
Experimental: as §4, §5, §6, §7

[6] = tested on: P388 murine leukemia; assay: Activity against P388 murine leukemia, intravenous inoculation, oral treatment; format: in vivo, CDF1 mice; conditions: administered orally (by gavage) 1 time on Day 1; at the dose producing the maximum effect; median survival time vs saline controls
Experimental: The platinum complexes according to the present invention were tested for antitumor activity against P388 murine leukemia. CDF1 mice weighing 20 grams were inoculated intravenously with 10⁶ ascites cells of P388 leukemia.
Drug administration of the platinum complexes was initiated on the day following the intravenous tumor inoculation. The complexes were administered at various dosage levels by oral gavage. Groups of 6 mice were used for each dose level, and they were treated with a single dose of the complex on the treatment day. A group of 10 saline treated control mice were included in each experiment. Cisplatin treated groups were included as positive controls in each experiment.
as §6
A complex was considered active if it produced a T/C greater than or equal to 125 percent.
For the above described in vitro cytotoxicity studies, the compounds are dissolved or suspended, depending on their solubility, in 0.9% Sodium Chloride or 10% ethanol in 0.9% Sodium Chloride. […]

## Iproplatin
[1]
  IC50 B16: 66.8-243 micrograms/milliter
[2]
  IC50 HCT116: 20.2-31.2 micrograms/milliter
[3]; route ip
  MAXIMUM % T/C: 160+^b %
  MAXIMUM T-C: 34.5 days
[4]
  MAXIMUM % T/C: 157%
[5]
  MAXIMUM % T/C: 143-171%

## N.N.[Cl][Pt][Cl] [Cisplatin]
[1]
  IC50 B16: 5.4-7.3 micrograms/milliter
[2]
  IC50 HCT116: 4.2-4.5 micrograms/milliter
[3]; route ip
  MAXIMUM % T/C: 126%
  MAXIMUM T-C: 33 days
[3]; route iv
  MAXIMUM % T/C: 114-126%
  MAXIMUM T-C: 25 to 27.3 days
[6]
  MAXIMUM % T/C: 173%
[4]
  MAXIMUM % T/C: 114%
[5]
  MAXIMUM % T/C: 143-207%
